Test results taken from patent US20040122086A1, “Method for the production of anhydrous, pharmaceutical formulations of xanthogenates” (priority 2001, published 2004).

How the values were obtained:
[1] = test system: herpes simplex virus 1 (HSV 1), strain Angelotti; assay: Antiviral action of D609 against HSV 1 (cytopathogenic effect) in monkey renal cells; assay type: cell-based; settings: for D609 concentration necessary to reduce the number of the infected cultures by 50%: monkey renal cells (Rita line)
Description: Monkey renal cells (Rita line) were infected in Linbro plates with 20 plaque-forming units of herpes simplex virus 1 (HSV 1), strain Angelotti. After 15 min, fresh cell culture medium (adjusted to pH 6.8 by reduction of the amount of sodium bicarbonate to 0.85 g/l and addition of 1 ml of 1 N HCl) which contained either 0, 5, 10, 15, 20, 25 or 30 μg/ml of D609 was added. All batches were carried out in quadruplicate. At the same time, cultures containing D609 and a fourfold concentration of cholesterol or containing cholesterol alone were treated. After 5 days, the monkey renal cells were lyzed in all untreated cultures by means of the cytopathogenic effect (cpe). After a further three days, the number of the cultures with cpe was determined for each D609 concentration. As can be inferred from FIG. 2, the number of cultures with cpe decreases with increasing D609 dose. The antiviral action of D609 was increased by cholesterol. While without cholesterol 25 μg/ml of D609 were necessary in order to reduce the number of the infected cultures by 50%, in the presence of cholesterol only 10 μg/ml of D609 were necessary. Cholesterol alone had no effect on the replication of HSV. Up to the highest concentration (120 μg/ml), all cultures were lyzed by HSV 1.

herpes simplex virus 1 = assay: Antiviral use of D609 ointment in animal experiments (background); assay type: in vivo
[2] = Stability of D609 in aqueous solution (pH increase as measure of decomposition); assay type: physicochemical; settings: 1 mg/ml D609 in distilled water, 37° C.
Description: D609 was dissolved in distilled water in a concentration of 1 mg/ml. 100 ml of this solution in each case were filled into a 200 ml Erlenmeyer flask. One of two solutions was treated with 1 g of cholesterol. Both solutions were incubated at 37° C. The pH of the solutions was determined at regular intervals. D609 decomposes in the presence of water to give tricyclodecanol, carbon disulfide and KOH. The pH of the solution increases with the formation of KOH. The increase in the pH is therefore a measure of the decomposition of D609.

[3] = Tolerability of D609 / xanthates in ointments (background); settings: ointment
[4] = test system: hairless mice (strain Swiss CD3, Nu/Nu); settings: mouse, in vivo
Description: (§1) D609 was mixed in a mortar together with the same proportion by weight of potassium salt of decanoic acid and two parts by weight of phosphatidylcholine or two or four parts by weight of cholesterol. After this, sufficient highly liquid paraffin oil and petroleum jelly (1 part by weight of paraffin oil, 4 parts by weight of petroleum jelly) were added such that in each case a concentration of 1.25; 2.5; 5.0; or 10% of D609 was achieved. In the same manner, D609-containing ointments without phosphatidylcholine or cholesterol were prepared.
(§2) 100 mg of ointment were applied twice in the neck region to 10 hairless mice each (strain Swiss CD3, Nu/Nu) at an interval of four hours. 12 hours after the last application, the degree of irritation was read off. The irritation was assessed according to the following scheme: slight erythema 0.5; severe erythema 1.0; ulceration 2.0.

[5] = test system: hairless mice (strain Swiss CD3, Nu/Nu); assay: Irritating action of D609 ointments on hairless mice; settings: for number of animals with slight erythema: 10 mice per group
Description: as §1, §2

[6] = ointments with 4 parts by weight of cholesterol, 10% D609
[7] = ointments with two parts by weight of cholesterol (plus same weight of potassium salt of decanoic acid)

SMILES: CC(C)CCC[C@@H](C)[C@H]1CC[C@H]2[C@@H]3CC=C4C[C@@H](O)CC[C@]4(C)[C@H]3CC[C@]12C [Cholesterol, cholesterol]
- effect on the replication of HSV ([1]; cholesterol alone, up to the highest concentration (120 μg/ml), all cultures were lyzed): no effect

SMILES: S=C(S)OC1CC2CC1C1CCCC21 (centres unmarked) [D609, tricyclodecan-9-yl xanthate]
- D609 concentration necessary to reduce the number of the infected cultures by 50% ([1]; in the presence of a fourfold concentration of cholesterol, pH 6.8): 10 µg/mL
- factor by which antiviral action of D609 is improved by cholesterol ([1]; pH 6.8, with versus without cholesterol): > 2.5
- D609 concentration necessary to reduce the number of the infected cultures by 50% ([1]; without cholesterol, pH 6.8, cpe read after 8 days): 25 µg/mL
- concentration needed in an ointment for effective antiviral use (herpes simplex virus 1): at least 2.5%
- pH increase and thus decomposition ([2]; 100 ml treated with 1 g of cholesterol, after 72 hours): only a small pH increase
- time within which marked decomposition is seen ([2]; without cholesterol): ≤ 6 h
- maximum tolerable concentration in ointments [3]: 1%
- tolerability [4]: marked improvement in the tolerability
- degree of irritation ([5]; 2.5% D609 in pure petroleum jelly ointment without phosphatidylcholine or cholesterol, 100 mg applied twice, read 12 hours after last application): marked irritation
- degree of irritation ([5]; 5% D609 in pure petroleum jelly ointment without phosphatidylcholine or cholesterol, 100 mg applied twice, read 12 hours after last application): very strongly pronounced
- number of animals with slight erythema ([5]; ointments containing four parts by weight of phosphatidylcholine, 5% D609): one
- number of animals with slight erythema ([5]; ointments containing four parts by weight of phosphatidylcholine, 10% D609): five
- degree of irritation [5, 6]: almost free of irritant action
- number of animals with slight erythema [5, 6]: one
- D609 concentration at which a significant irritation occurred [5, 7]: 10%
- degree of irritation [5, 7]: marked decrease in the symptoms
